The record followed here is patent US9296691B2, “Inhibitors of p75 receptor and their uses” (Horacio Uri Saragovi, priority 2010, dated 2016).

The subject of assay [1] is B104 cells. Put plainly: Pro-NTF killing assay (MTT), B104 cells. The format is cell-based. Conditions: pro-NTF 50 nM + I-B 20 μM, 72 hours. As for the experimental part:
The effect of I-B on the pro-apoptotic function of pro-NGF or pro-BDNF was tested in functional MTT assays measuring cell metabolism (FIG. 1B).
Cells (5,000 cells/well) were cultured in 96-well plates (Falcon, Lincoln Park, N.J.) in normal culture media (RPMI1640, Hepes, Glutamine, 5% serum). Wells were supplemented with NGF, BDNF, pro-NGF, or pro-BDNF (Alomone Labs) (50 nM final), in the presence or absence of I-B (20 μM final). Wells containing all culture conditions but no cells were used as blanks. The growth/survival profile of the cells was quantified using MTT (Sigma) 72 hours after plating. Optical density readings of MTT were done in a Benchmark Plus microplate Spectrophotometer (BioRad) at 595 nm with blanks subtracted.

The subject of assay [2] is NGI (NFL-GCL-IPL) retinal layers. Nature of the assay: ON axotomy model, retinal NGI thickness by FD-OCT. It counts as in vivo. Conditions: rat ON axotomy, 3 μg intravitreal immediately after axotomy, days 11 and 14, versus untreated axotomy. As to the method: Antagonists of p75NTR prevented loss of retinal structure after ON axotomy. The relative in vivo efficacy for I-B and LM-24 was tested using the ON axotomy model. A quantitative non-invasive structural endpoint, FD-OCT, was performed in the same animal over time to measure the integrity of the neuronal layers. We quantified the axons and fibers of the RGCs that contribute to the thickness of the Nerve Fiber Layer (NFL), the Ganglion Cell Layer (GCL), and the Inner Plexiform Layer (IPL), herein termed NGI. Maintenance of NGI structure correlates with RGC health (Bai et al., 2010a).
Wistar rats (female, 250-300 g; Charles River) were kept in a 12 hours dark-light cycle with food and water ad libitum. All animal manipulations were performed between 9 AM and 12 AM. […]
FD-OCT is a non-invasive method that allows time-kinetic studies in the same animal. […] In each B-scan the thickness of the NFL-GCL-IPL (NGI) was measured at four adjacent points at a distance 1.5 mm from the ON head. […]
(§1) For studies in the glaucoma animal model the injections were performed at days 14 and 21 after cauterization. […] Thus, in this paradigm there is pre-existing damage for 14 days before treatment (measured at ˜8% RGC death (Shi et al., 2007; Shi et al., 2008)); and the treatments require long-lived efficacy in the constant presence of retinal stress due to high IOP. […]

For assay [3], the system named is retinal ganglion cells (RGCs). Nature of the assay: Glaucoma (episcleral vein cauterization) model, quantification of surviving RGCs. It counts as in vivo. Conditions: rat glaucoma, intravitreal injections days 14 and 21, endpoint day 42; contralateral normal eye = 100%; control glaucoma 74-77%. As for the experimental part: Wistar rats (female, 250-300 g; Charles River) were kept in a 12 hours dark-light cycle with food and water ad libitum. All animal manipulations were performed between 9 AM and 12 AM. Deep anesthesia was used during cauterization (induction of glaucoma), ON transection, fluorogold labeling, intraocular injection procedures, Optical Coherence Tomography measurements, and euthanasia (ketamine, xylazine, acepromazine injected intraperitoneally: 50/5/1 mg/kg, as per IACUC recommendations). For measuring IOP, light anesthesia was used (a gas mixture of Oxygen, 2% isofluorane mixture, at a rate of 2.5 liter/min, as per IACUC recommendations).
The episcleral vein cauterization (EVC) model of rat (Shi et al., 2007; Shi et al., 2008) was used. […]
as §1
Quantification of labeled RGCs was performed as reported (Shi et al., 2007; Shi et al., 2008). […] Pictures for each freshly flat-mounted retina were taken using a Zeiss fluorescence microscope (Carl Zeiss Meditec, Jena, Germany), with 12 pictures/retina at 20× magnification. […]

SMILES strings stand for the structures.

For `CC(C)NC(=O)N(C(=O)Cn1cnc2c1c(=O)n(C)c(=O)n2C)C(C)C` [I-B, 1,3-Diisopropyl-1-[2-(1,3-dimethyl-2,6-dioxo-1,2,3,6-tetrahydro-purin-7-yl)-acetyl]-urea], the “cell viability (MTT) in presence of pro-NGF or pro-BDNF” value in assay [1] is recorded as “prevented the loss of cell viability”. Further, the “preservation of NGI thickness (FD-OCT)” value in assay [2] is “significant preservation of the NGI thickness”. The RGCs surviving in assay [3] worked out at 92%.
